One experiment addresses T1, 5-lipoxygenase (Mus musculus, UniProt P48999).
T1 construct: Resident mouse peritoneal macrophages were obtained from male CD-1 mice; endogenous in cells; host or cells: resident peritoneal macrophages from male CD-1 mice (Charles River Laboratories)
T1 sequence (P48999 1-674): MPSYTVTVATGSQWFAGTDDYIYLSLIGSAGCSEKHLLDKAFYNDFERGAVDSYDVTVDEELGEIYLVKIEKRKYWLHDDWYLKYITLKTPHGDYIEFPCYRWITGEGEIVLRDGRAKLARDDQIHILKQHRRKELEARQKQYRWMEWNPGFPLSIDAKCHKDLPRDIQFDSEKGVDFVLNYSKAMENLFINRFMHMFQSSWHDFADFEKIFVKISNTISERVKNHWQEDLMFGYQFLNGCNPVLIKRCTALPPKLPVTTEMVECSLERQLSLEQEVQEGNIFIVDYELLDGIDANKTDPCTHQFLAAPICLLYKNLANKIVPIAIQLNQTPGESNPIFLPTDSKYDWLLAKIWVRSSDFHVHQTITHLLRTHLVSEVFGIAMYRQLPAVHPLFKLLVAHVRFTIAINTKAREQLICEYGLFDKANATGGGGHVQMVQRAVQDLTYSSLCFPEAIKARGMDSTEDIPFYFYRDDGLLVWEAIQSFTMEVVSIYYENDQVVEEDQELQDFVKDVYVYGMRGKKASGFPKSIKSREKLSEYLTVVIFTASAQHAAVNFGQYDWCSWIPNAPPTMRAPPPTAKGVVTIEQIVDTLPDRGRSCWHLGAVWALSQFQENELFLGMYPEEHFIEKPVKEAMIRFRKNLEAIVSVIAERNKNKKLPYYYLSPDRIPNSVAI
Kind of experiment: Sustained 5-lipoxygenase inhibition in vitro (LTC4 by RIA, mouse peritoneal macrophages, washout). As to conditions: 10 μM for 30 minutes, washed, six hours washout, zymosan 50 μg/mL challenge; for inhibition at 10 µM: read-out: Sustained Inhibition, 10 μM Initial. The experiment is classed as cell-based. Here is the method: LTC4 was purchased from Biomol International, L.P., Plymouth Meeting, Pa.; ^3H-LTC4 was purchased from PerkinElmer Life and Analytical Sciences, Inc., Boston, Mass.; and antibody to LTC4 was purchased from Advanced Magnetics, Inc., Cambridge, Mass.
The retrieved lavage medium was added to tissue culture dishes and incubated for two hours at 37° C. in a humidified atmosphere containing 5% CO2. Following macrophage enrichment by adherence, the culture medium was removed and the resultant cell layer was washed twice with PBS, the medium (with heparin) was replaced with 1 mL of medium (without heparin), and the cells were then incubated overnight as described above. The following morning the medium was removed and the macrophages were washed twice with 2 mL PBS. One mL of fresh medium, devoid of serum, was then added.
Test compounds were added to the macrophage cultures to achieve a final concentration of 10 μM. The final DMSO concentration was 0.1% in for each test compound. Blank and control cultures were treated with DMSO only. After 30 minutes incubation, the macrophages were washed twice with 2 mL PBS. […] This treatment described in (b) was to allow for a washout period for the test compound.

Experiment [1] concerns A23187-Stimulated LTB4 in Rat Lung. Description: A23187-stimulated LTB4 in rat lung in situ (MDI dosing). Particulars: 20 μg by single MDI activation into excised rat lung, A23187 challenge, LTB4 by RIA. As to the method:
For the evaluation of test compounds using metered dose inhalers, dry compounds were dissolved in ethanol to a concentration of 2.33 mg/mL. 2.54 mL of this solution was added to a 20 g glass metered dose inhaler (MDI) vial and fitted with a continuous valve. The vials were cooled on dry ice, filled with 18 g of HFA 134a (DYMEL, E. I. Du Pont de Nemours and Co., Corpus Christi, Tex.), returned to dry ice, and the continuous valve was replaced with an intermittent valve that delivered 25 μL per activation. A single activation of a vial prepared as described delivered 20 μg of compound per activation. For experiments requiring different mass of compound per activation, the initial ethanol solution concentration was adjusted as necessary.
Male Sprague-Dawley rats (Charles River Laboratories, Inc. Wilmington, Mass.) weighing 250-300 grams were anesthetized with methoxyflurane in a closed container, the peritoneal cavity was exposed, and the animals were exsanguinated. The pleural cavity was exposed and the lung was removed with both the trachea and heart attached. The trachea was fitted with a cannula, secured with a ligature, and the distal end of the cannula was extended through a small hole in a #6 rubber stopper allowing for a tight seal. The lung, secured to the cannula and stopper, was then suspended in a 125 mL side arm Erlenmeyer flask filled to 100 mL with PBS warmed to 37° C. As such, access to the airways of the lung could be achieved through the cannula extending through the stopper to the outside of the flask. The flask was then placed in a 37° C. water bath.
An MDI, prepared as described above, containing test compound was fired with a single activation through the cannula and into the airways of the lung. The MDI were made to deliver 20 μg/shot, thus providing a dose of from about 0.06 mg/kg to about 0.08 mg/kg. Control lungs were similarly treated with an MDI containing propellant and co-solvent. The lungs were then incubated for 5 minutes at 37° C. Following this preincubation, 25 μL of 10 mM A23187 (Sigma Chemical Co., St. Louis, Mo.) was fired into the airways and the lung was incubated for an additional 10 minutes. Control lungs again were treated with propellant and co-solvent, only.
The lungs were then lavaged with 5 mL of ice cold PBS containing 1 mM EDTA. The recovered lavage fluid was centrifuged for 10 minutes at 150×g to sediment cells and LTB4 was quantified in the supernatant by specific RIA. The sensitivity of this assay was 155 pg/mL.

A further experiment concerns pulmonary adenomas. Description: Benzo(a)pyrene-induced pulmonary adenomas in A/J mice. The format is in vivo, mouse. As to conditions: sixteen weeks; for Adenoma counts, groups 1H and 2H compared: high dose 425 μg/kg by inhalation.
Experiment [2] relates to MC-26 murine colon carcinoma cells. Kind of experiment: Lung metastatic mouse model (MC-26 colon carcinoma cells i.v.), lung weight. The experiment is classed as in vivo. As to conditions: statement on Table 3. As to the method: A lung metastatic mouse model was used to determine the anti-tumor activity of a 5-LO inhibitor (zileuton) in combination with an IRM. 12-18 week old CDF1 female mice (Charles River Laboratories, Inc.) weighing 20-22 grams were injected in the tail intravenously with 5×10^5 MC-26 murine colon carcinoma cells. IRM2 was prepared in a 0.03M citrate buffered saline solution, pH 4.0. Zileuton was prepared in a 10% ethanol in water solution. At four hours and 24 hours after tumor challenge, mice were injected intra-peritoneally with zileuton and IRM2 as indicated in Table 3. One group of mice (Vehicle) was untreated. Fourteen days after tumor challenge, mice were sacrificed and lungs were removed and weighed.

A further experiment relates to lung tumors. Particulars: mice, administered orally; cited from earlier work.

As usually defined, the inhibition is the percentage by which the read-out fell short of the control.

`CCC(CC)N(O)C(=O)Nc1ccccc1` [Compound 8, 1-hydroxy-1-(1-ethylpropyl)-3-phenylurea]: the inhibition at 10 µM at 5-lipoxygenase was 12%. Also, the “Inhibition, 20 μg in situ” value in experiment [1] was 72.
Taken in the same sequence, the figures for `O=C(Nc1ccccc1)N(O)CCCn1cccc1` [Compound 3, 1-hydroxy-1-(3-pyrrol-1-ylpropyl)-3-phenylurea] were 3% and 84.
Taken in the same sequence, the figures for `CCCCCN(O)C(=O)Nc1cc(OC)c(OC)c(OC)c1` [Compound 4, 1-hydroxy-1-pentyl-3-(3,4,5-trimethoxyphenyl)urea] were 24% and 84.
As to `CCC(CC)N(O)C(=O)Nc1ccc(Cc2ccc(NC(=O)N(O)C(CC)CC)cc2)cc1` [Compound 5], the “Sustained Inhibition, 10 μM Initial” value at 5-lipoxygenase stood at 86. In addition, in experiment [1], the “Inhibition, 20 μg in situ” value amounted to 66.
On to `CC(c1cc2ccccc2s1)N(O)C(N)=O` (stereo not drawn) [Zileuton, zileuton, reference compound], for which, on 5-lipoxygenase, the inhibition at 10 µM worked out at 28%. Also, the “Inhibition, 20 μg in situ” value in experiment [1] amounted to 42. In the experiment on pulmonary adenomas (oral, average 245 mg/kg in the diet), the “effect on the number of pulmonary adenomas” value is “did not have any apparent effect”. Also, the tumor growth result in experiment [2] was “inhibits tumor growth”. The “preventing lung tumors and slowing growth and progression of adenoma to carcinoma” value in the experiment on lung tumors is listed as “effective”.
For `CCCCCN(O)C(=O)Nc1ccc(Oc2ccccc2)cc1` [Compound 6, 1-hydroxy-3-(4-phenoxyphenyl)-1-pentylurea], at 5-lipoxygenase, the inhibition at 10 µM was 100%. Also, the “Inhibition, 20 μg in situ” value in experiment [1] is 88.
Turning to `CSc1ccc(NC(=O)N(O)C(C)C)cc1` [Compound 7, 1-hydroxy-1-(1-methylethyl)-3-[4-(methylthio)phenyl]urea], on 5-lipoxygenase, the inhibition at 10 µM came out at 18%.
With `CCCCCN(O)C(=O)Nc1ccc(OCCCC)cc1` [Compound 2, 3-(4-butoxyphenyl)-1-hydroxy-1-pentylurea], in the experiment with pulmonary adenomas, the “Adenoma counts, groups 1H and 2H compared” value is recorded as “similar”.
As for `CCC(CC)N(O)C(=O)Nc1cccc(Oc2ccccc2)c1` [Compound 1, 1-hydroxy-1-(1-ethylpropyl)-3-(3-phenoxyphenyl)urea], the inhibition at 10 µM on 5-lipoxygenase came to 100%. The “Inhibition, 20 μg in situ” value in experiment [1] was determined as 100. In the experiment on pulmonary adenomas, the “Adenoma counts, groups 1H and 2H compared” value is “similar”.
Consider `CSc1ccc(NC(=O)N(C)O)cc1` [Compound 9, 1-hydroxy-1-methyl-3-[4-(methylthio)phenyl]urea], for which, on 5-lipoxygenase, the inhibition at 10 µM stood at 0%.

The values above are taken from US20050267145A1, “Treatment for lung cancer” (priority 2004, published 2005).
